Reference: ChEMBL document CHEMBL4368924, “Synthesis and biological evaluation of nitroxide labeled pyrimidines as Aurora kinase inhibitors” (Bioorg Med Chem Lett, 2019)
Calls of active or inactive are those of the source. The calls are words filed in the database; no cut-off is given here.

How the values were obtained:
HeLa [1] = experiment: Antiproliferative activity against human HeLa cells after 48 hrs by MTT assay; assay type: functional, cell-based
A549 = experiment: Antiproliferative activity against human A549 cells after 48 hrs by MTT assay; assay type: functional, cell-based
HepG2 = experiment: Antiproliferative activity against human HepG2 cells after 48 hrs by MTT assay; assay type: functional, cell-based
LoVo = experiment: Antiproliferative activity against human LoVo cells after 48 hrs by MTT assay; assay type: functional, cell-based
[2] = target: T1, Aurora kinase A (Homo sapiens) (UniProt O14965); experiment: Inhibition of aurora A (unknown origin) using Kemptide as substrate at 1 uM after 60 mins by ADP-Glo luminescence assay relative to control
T1 sequence (whole entry): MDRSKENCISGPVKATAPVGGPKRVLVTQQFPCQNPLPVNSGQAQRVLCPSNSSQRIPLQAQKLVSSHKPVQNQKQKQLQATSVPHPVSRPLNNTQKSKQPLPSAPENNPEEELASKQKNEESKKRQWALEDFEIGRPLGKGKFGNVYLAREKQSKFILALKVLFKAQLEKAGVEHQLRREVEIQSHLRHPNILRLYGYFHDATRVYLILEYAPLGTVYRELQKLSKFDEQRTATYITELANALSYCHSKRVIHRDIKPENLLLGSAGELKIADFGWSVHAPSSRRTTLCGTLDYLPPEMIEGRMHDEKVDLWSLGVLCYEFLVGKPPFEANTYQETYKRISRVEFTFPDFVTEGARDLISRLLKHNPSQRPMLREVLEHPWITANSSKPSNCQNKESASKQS

Aurora kinase B [3] = target: T2, Aurora kinase B (Homo sapiens, UniProt Q96GD4); experiment: Inhibition of aurora B (unknown origin) using Kemptide as substrate at 1 uM after 60 mins by ADP-Glo luminescence assay relative to control
[4] = target: RAC-alpha serine/threonine-protein kinase (Homo sapiens) (UniProt P31749); experiment: Inhibition of AKT (unknown origin) using Kemptide as substrate at 1 uM after 60 mins by ADP-Glo luminescence assay relative to control
Homo sapiens = species on record: Homo sapiens; experiment: Inhibition of PI3K (unknown origin) using Kemptide as substrate at 1 uM after 60 mins by ADP-Glo luminescence assay relative to control
[5] = target: Activin receptor type-1-like (Homo sapiens) (UniProt P37023); experiment: Inhibition of ALK1 (unknown origin) using Kemptide as substrate at 1 uM after 60 mins by ADP-Glo luminescence assay relative to control
[6] = target: Vascular endothelial growth factor receptor 2 (Homo sapiens) (UniProt P35968); experiment: Inhibition of VEGFR2 (unknown origin) using Kemptide as substrate at 1 uM after 60 mins by ADP-Glo luminescence assay relative to control
Aurora kinase A = target: T3, Aurora kinase A (Homo sapiens, UniProt O14965); experiment: Inhibition of aurora A (unknown origin) using Kemptide as substrate after 60 mins by ADP-Glo luminescence assay
T3 sequence (O14965 whole entry): T1 sequence (whole entry)

Aurora kinase B [7] = target: T2, Aurora kinase B; experiment: Inhibition of aurora B (unknown origin) using Kemptide as substrate after 60 mins by ADP-Glo luminescence assay
[8] = target: T1, Aurora kinase A (Homo sapiens); experiment: Inhibition of aurora A phosphorylation at Thr288 residues in human HeLa cells after 24 hrs by immunofluorescence assay; assay type: cell-based
Aurora kinase B [9] = target: T2, Aurora kinase B; experiment: Inhibition of aurora B phosphorylation at Thr232 residues in human HeLa cells after 24 hrs by immunofluorescence assay; assay type: cell-based
Aurora kinase B [10] = target: T2, Aurora kinase B; experiment: Inhibition of aurora B in human HeLa cells assessed as decrease in HisH3 phosphorylation at ser10 residues after 24 hrs by Western blot analysis; assay type: cell-based
[11] = target: T1, Aurora kinase A (Homo sapiens); experiment: Inhibition of aurora A in human HeLa cells assessed as decrease in Eg5 level after 24 hrs by Western blot analysis; assay type: cell-based
[12] = target: T1, Aurora kinase A (Homo sapiens); experiment: Inhibition of aurora A in human HeLa cells assessed as decrease in Bora level after 24 hrs by Western blot analysis; assay type: cell-based
[13] = target: T1, Aurora kinase A (Homo sapiens); experiment: Inhibition of aurora A in human HeLa cells assessed as decrease in TPX2 level after 24 hrs by Western blot analysis; assay type: cell-based
HeLa [14] = experiment: Induction of morphological changes in human HeLa cells assessed as disrupting mitotic spindle formation at 5 uM after 24 hrs by DAPI-staining based immunofluorescence assay; assay type: functional, cell-based

T2 sequence (Q96GD4 whole entry): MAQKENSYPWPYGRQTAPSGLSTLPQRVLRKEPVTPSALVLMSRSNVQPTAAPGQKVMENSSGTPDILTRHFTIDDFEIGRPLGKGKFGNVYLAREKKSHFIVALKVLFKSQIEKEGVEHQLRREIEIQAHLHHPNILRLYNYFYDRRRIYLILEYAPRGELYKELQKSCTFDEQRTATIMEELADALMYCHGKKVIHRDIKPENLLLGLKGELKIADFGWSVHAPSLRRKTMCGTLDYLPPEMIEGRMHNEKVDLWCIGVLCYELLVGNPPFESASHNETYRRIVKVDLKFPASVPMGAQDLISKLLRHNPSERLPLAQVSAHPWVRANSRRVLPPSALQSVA
Activin receptor type-1-like (Homo sapiens), sequence (P37023 whole entry): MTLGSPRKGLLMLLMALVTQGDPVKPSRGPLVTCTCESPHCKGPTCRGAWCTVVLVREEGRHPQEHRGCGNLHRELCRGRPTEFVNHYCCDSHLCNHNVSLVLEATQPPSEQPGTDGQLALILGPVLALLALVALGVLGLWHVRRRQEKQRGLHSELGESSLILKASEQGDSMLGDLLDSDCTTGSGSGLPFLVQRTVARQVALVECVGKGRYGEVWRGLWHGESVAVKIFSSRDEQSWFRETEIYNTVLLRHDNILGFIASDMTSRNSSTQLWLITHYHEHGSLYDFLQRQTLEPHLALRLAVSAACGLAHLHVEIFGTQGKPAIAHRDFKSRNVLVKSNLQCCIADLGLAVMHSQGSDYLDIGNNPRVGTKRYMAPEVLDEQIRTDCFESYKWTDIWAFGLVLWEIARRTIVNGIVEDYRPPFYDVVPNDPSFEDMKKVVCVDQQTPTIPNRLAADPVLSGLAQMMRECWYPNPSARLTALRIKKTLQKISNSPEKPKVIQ
RAC-alpha serine/threonine-protein kinase (Homo sapiens), sequence (P31749 whole entry): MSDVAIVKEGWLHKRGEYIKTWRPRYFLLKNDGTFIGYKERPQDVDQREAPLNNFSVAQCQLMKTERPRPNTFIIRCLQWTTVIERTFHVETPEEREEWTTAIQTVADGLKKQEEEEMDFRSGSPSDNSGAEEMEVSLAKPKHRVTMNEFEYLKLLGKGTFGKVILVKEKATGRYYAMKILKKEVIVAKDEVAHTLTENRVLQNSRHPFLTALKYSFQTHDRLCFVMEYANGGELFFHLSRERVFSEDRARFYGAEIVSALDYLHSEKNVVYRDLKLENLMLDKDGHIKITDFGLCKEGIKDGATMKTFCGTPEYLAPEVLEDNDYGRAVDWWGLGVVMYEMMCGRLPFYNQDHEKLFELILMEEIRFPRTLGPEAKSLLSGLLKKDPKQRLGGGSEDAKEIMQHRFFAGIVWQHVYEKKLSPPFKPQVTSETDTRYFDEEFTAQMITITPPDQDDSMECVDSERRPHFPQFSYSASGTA
Vascular endothelial growth factor receptor 2 (Homo sapiens), sequence (P35968 whole entry): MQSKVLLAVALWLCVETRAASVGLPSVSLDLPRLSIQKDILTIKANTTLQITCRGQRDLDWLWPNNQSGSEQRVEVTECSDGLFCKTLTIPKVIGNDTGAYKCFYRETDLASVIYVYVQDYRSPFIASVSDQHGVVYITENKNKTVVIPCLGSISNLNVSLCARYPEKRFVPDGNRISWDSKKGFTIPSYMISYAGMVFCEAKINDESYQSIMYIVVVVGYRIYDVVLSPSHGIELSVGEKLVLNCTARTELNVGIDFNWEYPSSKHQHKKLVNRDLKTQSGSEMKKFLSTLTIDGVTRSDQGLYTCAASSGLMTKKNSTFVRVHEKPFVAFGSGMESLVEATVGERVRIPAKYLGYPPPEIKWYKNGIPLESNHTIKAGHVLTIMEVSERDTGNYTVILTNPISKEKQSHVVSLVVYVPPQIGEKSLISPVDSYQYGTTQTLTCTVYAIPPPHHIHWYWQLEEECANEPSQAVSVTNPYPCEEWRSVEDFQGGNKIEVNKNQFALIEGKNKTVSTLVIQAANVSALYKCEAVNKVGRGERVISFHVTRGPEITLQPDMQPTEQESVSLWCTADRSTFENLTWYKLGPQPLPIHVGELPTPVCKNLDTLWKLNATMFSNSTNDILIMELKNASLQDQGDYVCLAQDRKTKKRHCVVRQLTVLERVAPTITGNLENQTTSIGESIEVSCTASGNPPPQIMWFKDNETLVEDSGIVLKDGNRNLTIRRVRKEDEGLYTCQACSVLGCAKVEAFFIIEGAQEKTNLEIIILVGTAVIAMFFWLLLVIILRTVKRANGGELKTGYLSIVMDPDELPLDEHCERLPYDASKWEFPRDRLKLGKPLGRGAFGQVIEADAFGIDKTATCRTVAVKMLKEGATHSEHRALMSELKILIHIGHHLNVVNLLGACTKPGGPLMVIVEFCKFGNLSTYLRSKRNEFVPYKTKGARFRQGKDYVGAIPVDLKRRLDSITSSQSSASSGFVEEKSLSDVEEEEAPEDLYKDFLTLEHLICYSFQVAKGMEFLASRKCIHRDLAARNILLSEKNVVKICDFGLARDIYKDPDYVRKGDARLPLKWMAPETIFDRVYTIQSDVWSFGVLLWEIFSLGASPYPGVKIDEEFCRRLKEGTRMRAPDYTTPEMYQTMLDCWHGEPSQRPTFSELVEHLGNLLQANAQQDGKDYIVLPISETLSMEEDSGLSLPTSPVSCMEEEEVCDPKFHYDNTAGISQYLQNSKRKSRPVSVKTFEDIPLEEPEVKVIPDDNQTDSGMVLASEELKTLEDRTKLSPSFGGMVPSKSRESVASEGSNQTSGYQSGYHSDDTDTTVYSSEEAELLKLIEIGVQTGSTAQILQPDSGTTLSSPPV

SMILES | IC50 (HeLa [1]; hela) | IC50 (A549; a549) | IC50 (HepG2; hepg2) | IC50 (LoVo; lovo) | also measured
CC1(C)CC(NC(=O)c2ccc(Nc3ncc(F)c(NCCCNc4ccc([N+](=O)[O-])cc4)n3)cc2)CC(C)(C)N1[O] | 31.7 µM | 12.4 µM | 19.8 µM | 53.6 µM | 
Cc1cc(Nc2nc(Nc3ccc(C(=O)NC4CC(C)(C)N([O])C(C)(C)C4)cc3)ncc2[N+](=O)[O-])n[nH]1 | 29.1 µM | 15.3 µM | 37.5 µM | > 100 µM | 
CCCCOC(=O)Cc1cc(Nc2nc(Nc3ccc(C(=O)NC4CC(C)(C)N([O])C(C)(C)C4)cc3)ncc2F)n[nH]1 |  |  |  |  | IC50 (HeLa [1]; Homo sapiens, HeLa, 48 h): 2.72 µM; IC50 (A549; Homo sapiens, A549, 48 h): 0.89 µM; IC50 (HepG2; Homo sapiens, HepG2, 48 h): 5.73 µM; IC50 (LoVo; Homo sapiens, LoVo, 48 h): 11.4 µM; inhibition [2]: 84.5%; inhibition (Aurora kinase B [3]): 90.5%; inhibition [4]: 0%; inhibition (Homo sapiens): 7%; inhibition [5]: 33.5%; inhibition [6]: 35.5%; IC50 (Aurora kinase A): 0.0093 µM; IC50 (Aurora kinase B [7]): 0.0028 µM; inhibition [8]: Dose-dependent effect; inhibition (Aurora kinase B [9]): Dose-dependent effect; inhibition (Aurora kinase B [10]): Dose-dependent effect; inhibition [11]: Dose-dependent effect; inhibition [12]: Dose-dependent effect; inhibition [13]: Dose-dependent effect; Activity (HeLa [14]): Active
Cc1cc(Nc2cc(N3CCN(C)CC3)nc(Sc3ccc(NC(=O)C4CC4)cc3)n2)n[nH]1 [TOZASERTIB] |  |  |  |  | IC50 (HeLa [1]; Homo sapiens, HeLa, 48 h): 46.2 µM; IC50 (A549; Homo sapiens, A549, 48 h): 35.8 µM; IC50 (HepG2; Homo sapiens, HepG2, 48 h): 53.3 µM; IC50 (LoVo; Homo sapiens, LoVo, 48 h): 45.3 µM
Cc1cc(Nc2nc(Nc3ccc(C(=O)NC4CC(C)(C)N([O])C(C)(C)C4)cc3)ncc2F)n[nH]1 | 11.2 µM | 2.12 µM | 10.8 µM | 42.2 µM | 
CC1(C)CC(NC(=O)c2ccc(Nc3ncc([N+](=O)[O-])c(NC4CCCC4)n3)cc2)CC(C)(C)N1[O] | 55.6 µM | 33.2 µM | 28.7 µM | 41.2 µM | 
Cc1cc(Nc2nc(Nc3ccc(C(=O)NC4CC(C)(C)N([O])C(C)(C)C4)cc3)ncc2[N+](=O)[O-])no1 | 7.36 µM | 1.14 µM | 7.36 µM | 26.8 µM | 
CCOC(=O)c1csc(Nc2nc(Nc3ccc(C(=O)NC4CC(C)(C)N([O])C(C)(C)C4)cc3)ncc2[N+](=O)[O-])n1 | 3.79 µM | 0.74 µM | 6.87 µM | 12.5 µM | 
Cc1cc(Nc2nc(Nc3ccc(C(=O)NC4CC(C)(C)N([O])C(C)(C)C4)cc3)ncc2F)no1 |  |  |  |  | IC50 (HeLa [1]; Homo sapiens, HeLa, 48 h): 5.68 µM; IC50 (A549; Homo sapiens, A549, 48 h): 0.88 µM; IC50 (HepG2; Homo sapiens, HepG2, 48 h): 10.8 µM; IC50 (LoVo; Homo sapiens, LoVo, 48 h): 12 µM; inhibition [2]: 69%; inhibition (Aurora kinase B [3]): 76.5%; inhibition [4]: 0%; inhibition (Homo sapiens): 18%; inhibition [5]: 39%; inhibition [6]: 57%; IC50 (Aurora kinase A): 0.0201 µM; IC50 (Aurora kinase B [7]): 0.0173 µM
CCCCOC(=O)Cc1csc(Nc2nc(Nc3ccc(C(=O)NC4CC(C)(C)N([O])C(C)(C)C4)cc3)ncc2F)n1 | 5.23 µM | 2.31 µM | 11.5 µM | 21.9 µM | 
CC(C)OC(=O)Cc1csc(Nc2nc(Nc3ccc(C(=O)NC4CC(C)(C)N([O])C(C)(C)C4)cc3)ncc2F)n1 | 11.2 µM | 3.42 µM | 13.4 µM | 11.9 µM | 
CC1(C)CC(NC(=O)c2ccc(Nc3ncc([N+](=O)[O-])c(N4CCN(c5ccc(F)cc5)CC4)n3)cc2)CC(C)(C)N1[O] | 25.3 µM | 10.2 µM | 13.1 µM | 27.8 µM | 
CCN1CCN(c2nc(Nc3ccc(C(=O)NC4CC(C)(C)N([O])C(C)(C)C4)cc3)ncc2[N+](=O)[O-])CC1 | 17.5 µM | 1.96 µM | 56.8 µM | 39.7 µM | 
CC1(C)CC(NC(=O)c2ccc(Nc3ncc(F)c(N4CCOCC4)n3)cc2)CC(C)(C)N1[O] | 14.3 µM | 13.2 µM | 22.6 µM | 35.5 µM | 
CCOC(=O)Cc1csc(Nc2nc(Nc3ccc(C(=O)NC4CC(C)(C)N([O])C(C)(C)C4)cc3)ncc2[N+](=O)[O-])n1 | 12 µM | 1.04 µM | 26.4 µM | 27 µM | 
